pIC50: −log10 of the molar value.
How the values were obtained:
[1] = biological target: T1, Triticum aestivum (wheat) EPSP synthase DGT-7 variant DGT-7 v6 (G→A) (Triticum aestivum, UniProt B5M6A1, G167A); assay: In vitro kinetic assay (inorganic phosphate production, malachite green); format: biochemical; conditions: for pIC50: IC50 (glyphosate)
T1 sequence (B5M6A1 with tags, fused parts or gaps G167A): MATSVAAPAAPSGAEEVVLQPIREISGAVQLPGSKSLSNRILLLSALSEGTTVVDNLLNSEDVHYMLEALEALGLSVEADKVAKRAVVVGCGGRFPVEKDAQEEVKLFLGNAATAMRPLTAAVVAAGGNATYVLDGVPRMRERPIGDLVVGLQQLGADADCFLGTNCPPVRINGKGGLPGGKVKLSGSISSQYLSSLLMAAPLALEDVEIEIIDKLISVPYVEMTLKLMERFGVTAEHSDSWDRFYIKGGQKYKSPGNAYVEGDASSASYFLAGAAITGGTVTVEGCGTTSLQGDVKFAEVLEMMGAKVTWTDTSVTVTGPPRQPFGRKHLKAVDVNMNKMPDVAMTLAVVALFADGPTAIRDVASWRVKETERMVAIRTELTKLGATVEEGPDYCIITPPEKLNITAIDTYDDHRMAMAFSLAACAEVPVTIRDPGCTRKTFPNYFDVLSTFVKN
Source text: (§1) The following Class I enzymes: DGT-1 from Glycine max, DGT-3 from Brassica napus (GENBANK ACC NO: P17688), and DGT-7 from Triticum aestivum (GENBANK ACC NO: EU977181) were used as a comparison. The Class I EPSP synthase enzymes and mutant variants thereof were synthesized and evaluated. A mutation introduced into the plant EPSP synthase enzymes consisted of the Glycine to Alanine mutation made within the EPSP synthase enzyme at a similar location as that of the G96A mutation from the E. coli version of the enzyme. In addition, Threonine to Isoleucine and Proline to Serine mutations were introduced within these Class I EPSP synthase enzymes at analogous positions as that of amino acid 97 (T to I) and amino acid 101 (P to S) in the EPSP synthase of E. coli as described in Funke et al., (2009).
(§2) The location of the amino acid residue which was mutated from glycine to alanine is indicated by the first asterisk. The location of the amino acid residue which was mutated from threonine to isoleucine is indicated by the second asterisk. The location of the third amino acid residue which was mutated from proline to serine is indicated by the third asterisk. These mutations were introduced into different versions of DGT-1, DGT-3, and DGT-7. The different versions of the genes which contain the mutations are described in more detail below.
(§3) Additional constructs containing the dgt-1, dgt-3 and dgt-7 were synthesized. These constructs were used for in vitro testing of the dgt-1 v5, dgt-1 v6, dgt-1 v7, dgt-1 v8, dgt-3 v6, dgt-3 v7, dgt-3 v8, dgt-7 v5, dgt-7 v6, dgt-7 v7, and dgt-7 v8 gene sequences were outsourced to GeneArt for synthesis and cloning. The synthesized genes were cloned into the pET28 expression vector. The resulting constructions were labeled as pDAB102028 containing dgt-1 v5, pDAB102029 containing dgt-1 v6, pDAB102032 containing dgt-1 v7, pDAB102034 containing dgt-1 v8, pDAB100429 containing dgt-3 v6, pDAB100442 containing dgt-3 v7, pDAB100430 containing dgt-3 v8, pDAB102036 containing dgt-7 v5, pDAB102038 containing dgt-7 v6, pDAB102040 containing dgt-7 v7, and pDAB102042 containing dgt-7 v8.
(§4) Recombinant DGT proteins were overexpressed in Rosetta2™ (DE3) cells (Novagen, Madison, Wis.) from the constructs described above. A single colony was used to inoculate 50 mL starter cultures of LB containing chloramphenicol (25 μg/mL) and kanamycin (50 μg/mL) which were cultivated overnight at 37° C. The overnight cultures were used to inoculate 1 L of LB containing chloramphenicol (25 μg/mL) and kanamycin (50 μg/mL). The cultures were grown at 37° C. to an O.D.600=0.6 then placed in an ice water bath for 10 minutes. Expression of the target proteins was achieved by addition of IPTG to a final concentration of 500 μM. Induction was allowed to proceed overnight at 20° C. followed by harvesting via centrifugation at 8,000 rpm for 20 minutes. The cell pellets were stored at −80° C. until required for purification. All purification steps were carried out at 4° C.
(§5) Cell pellets from 1 L cultures were resuspended in 20-30 mL Buffer A (50 mM HEPES pH 7.5, 150 mM KCl, 2 mM DTT, 1 mM EDTA, 20 mM imidazole, and 5% glycerol). COMPLETE™ protease inhibitor cocktail (1 tablet/50 mL, Roche, Indianapolis, Ind.) and lysozyme (1 mg/mL, Sigma-Aldrich, St. Louis, Mo.) were then added and the suspension was stirred for 20 minutes. Cell lysis was performed using a Branson Sonifier 250 (3×60 second bursts) followed by removal of the cell debris by centrifugation at 16,000 rpm for 45 minutes. DGT enzymes were purified to homogeneity in one step via immobilized metal affinity chromatography (IMAC) using a 5 mL HisTrap FF crude column. The column was equilibrated in Buffer A and the sample was loaded in the same buffer. The column was then washed with 10 column volumes of Buffer A followed by elution in a 0-100% Buffer B (50 mM HEPES pH 7.5, 200 mM KCl, 2 mM DTT, 1 mM EDTA, 500 mM imidazole, and 5% glycerol) linear gradient over 25 column volumes. […]

[2] = biological target: T2, Brassica napus (canola) EPSP synthase DGT-3 (GENBANK P17688) variant DGT-3 v8 (T→I, P→S; TIPS) (Brassica napus, UniProt P17688, P178S/T174I); assay: as above; format: biochemical
T2 construct: made in house; host or cells: E. coli Rosetta2 (DE3)
T2 sequence (P17688 73-516 T174I/P178S): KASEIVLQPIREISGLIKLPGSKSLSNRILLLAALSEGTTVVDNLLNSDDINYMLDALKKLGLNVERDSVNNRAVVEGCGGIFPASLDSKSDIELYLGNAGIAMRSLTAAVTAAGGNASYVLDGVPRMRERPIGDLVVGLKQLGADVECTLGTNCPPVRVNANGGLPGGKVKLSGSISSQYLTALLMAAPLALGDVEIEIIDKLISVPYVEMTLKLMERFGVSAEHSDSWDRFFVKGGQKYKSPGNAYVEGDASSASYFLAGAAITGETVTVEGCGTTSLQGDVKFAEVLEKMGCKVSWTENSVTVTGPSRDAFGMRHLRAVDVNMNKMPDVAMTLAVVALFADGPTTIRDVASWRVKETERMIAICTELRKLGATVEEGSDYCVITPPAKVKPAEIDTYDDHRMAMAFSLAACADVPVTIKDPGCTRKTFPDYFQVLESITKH
Source text: as §1, §2, §3, §4, §5

SMILES: C=C(OP(=O)(O)O)C(=O)O [PEP, phosphoenolpyruvate]
- increase of Km for PEP ([1]; G to A mutation vs un-mutated): ~8 fold
- kcat/Km ([2]; PEP, pH 7.5, 1 mM S3P): 32900 M⁻¹ s⁻¹

SMILES: O=C(O)CNCP(=O)(O)O [glyphosate, N-(phosphonomethyl)glycine]
- pIC50 ([1]; at 60 μM PEP): 1.82
- pIC50 ([1]; at 1 mM PEP): 2.09
- pIC50 ([2]; IC50 (glyphosate), at 60 μM PEP): 2.32
- pIC50 ([2]; IC50 (glyphosate), at 1 mM PEP): 1.88
- pIC50 ([2]; tolerance to glyphosate, PEP concentration not given): 2.22 to 2.52
